Reference: patent publication US20250304537A1 (Repare Therapeutics Inc., priority 2022, published 2025)
Where two headings read alike, the source gives them in different places.

Tested on: PKMYT1 (CDK1 pThr14) in FUOV1 cells
Assay: PKMYT1 cell-based activity assay, CDK1 pThr14 AlphaLISA in FUOV1 cells
Details: read-out: FUOV-1 CDK1 pThr14 IC50
Method: To determine compound IC50 (PKMYT1 cell-based activity assay, CDK1 pThr14 AlphaLISA), FUOV1 cells were plated into a 96-well TC-treated culture plate at 50000 cells/well in a final volume of 100 μL of media. The plates were then allowed to equilibrate in a biological safety cabinet for 30 minutes before being placed in a humidified incubator at 37 C and 5% CO2 overnight. The next day, 2 μL of PKMYT1 inhibitors or DMSO were diluted in 400 μL of warmed culture media in a 96-well block using a Biomek FX liquid handler. Compounds were mixed in media and then 25 μL was dispensed into each well of the 96-well cell plate. Plates were centrifuged at 300 g for 10 seconds and then placed in the incubator for 2 hours. After the 2-hour incubation with compound, media was removed via aspiration using a multichannel pipette. 30 μL of 1× AlphaLISA lysis buffer (Perkin Elmer) supplemented with protease and phosphatase inhibitors as well as 1 mM PMSF, was added to each well. Plates were rotated at 500 g for 20 minutes to facilitate lysis. Plates were then sealed with aluminum foil and frozen at −80° C. for at least 1 hour. Lysates were thawed at 37° C. for 10 minutes, then 10 μL of each lysate was transferred in duplicate to a white 384-well assay plate. Antibody mixture was prepared in 1× AlphaLISA assay buffer (Perkin Elmer) containing antibodies (5 nM final concentration for rabbit pThr14-CDK1 from Abcam #ab58509 and mouse total CDK1 from ThermoFisher Scientific #33-1800). 5 μL of antibody mixture was added to each well of the assay plate. The assay plate was sealed and stored at 4° C. overnight. The next day, AlphaLISA bead mixture (Perkin Elmer) was prepared in 1× AlphaLISA assay buffer. Anti-rabbit IgG Acceptor (Perkin Elmer #AL104C) and anti-mouse IgG Donor beads (Perkin Elmer #AS104D) were prepared to a concentration of 80 μg/ml in assay buffer. 5 μL of bead mixture was added to each well of the assay plate (20 μg/ml final concentration for each bead). The plate was protected from light and incubated for 2 hours at room temperature. After a 2-hour incubation with beads, the plate was read using the Perkin Elmer EnVision Multimode plate reader with excitation at 680 nm and emission at 615 nm.

| Structure (SMILES) | IC50 (2 h, 2 h compound incubation) [nM] | other results |
| --- | --- | --- |
| Cc1cc(Nc2cc(F)ccc2-c2nc(C(N)=O)c(N)c(-c3c(C)ccc4[nH]ncc34)n2)nc(C)n1 [Compound 578] | 150 |  |
| Cc1cnc(Nc2cc(F)ccc2-c2nc(C(N)=O)c(N)c(-c3c(C)ccc4[nH]ncc34)n2)s1 [Compound 587] | 172 |  |
| CSc1nccc(Nc2cc(F)ccc2-c2nc(C(N)=O)c(N)c(-c3c(C)ccc4[nH]ncc34)n2)n1 [Compound 583] | 122 |  |
| COc1nccnc1Nc1nc(Cl)ccc1-c1nc(C(N)=O)c(N)c(-c2c(C)ccc3[nH]ncc23)n1 [Compound 826] |  | IC50 (2 h, 2 hours with compound): 12 nM |
| Cc1cccnc1Nc1ncc(F)cc1-c1nc(C(N)=O)c(N)c(-c2c(C)ccc3[nH]ncc23)n1 [Compound 672] | 33 |  |
| NC(=O)c1nc(-c2ccc(F)nc2Nc2ncccn2)nc(-c2c(Cl)ccc3[nH]ncc23)c1N [Compound 923] |  | IC50 (2 h, 2 hours with compound): 68 nM |
| NC(=O)c1nc(-c2cc(F)ccc2Nc2ncc(F)cn2)nc(-c2c(Cl)ccc3[nH]ncc23)c1N [Compound 554] | 138 |  |
| Cc1ccc2[nH]ncc2c1-c1nc(-c2cccnc2NCCC#N)nc(C(N)=O)c1N [Compound 542] | 77 |  |
| Cc1ccc2[nH]ncc2c1-c1nc(-c2cccnc2N[C@@H]2CCOC[C@H]2F)nc(C(N)=O)c1N [Compound 647] | 28 |  |
| Cc1ccc2[nH]ncc2c1-c1nc(-c2cccnc2N[C@H]2CCCOC2)nc(C(N)=O)c1N [Compound 546] | 12 |  |
| Cc1ccc2[nH]ncc2c1-c1nc(-c2ccc(F)cc2Nc2nccnc2C#N)nc(C(N)=O)c1N [Compound 701] | 25 |  |
| NC(=O)c1nc(-c2ccc(F)cc2Nc2ncccn2)nc(-c2c(Cl)ccc3[nH]ncc23)c1N [Compound 949] |  | IC50 (2 h, 2 hours with compound): 50 nM |
| Cc1ccc2[nH]ncc2c1-c1nc(-c2cc(F)cnc2N[C@H]2COC[C@H]2O)nc(C(N)=O)c1N [Compound 815] |  | IC50 (2 h, 2 hours with compound): 511 nM |
| [2H]C([2H])([2H])c1ccc2[nH]ncc2c1-c1nc(-c2cc(F)ccc2Nc2ncc(F)cn2)nc(C(N)=O)c1N [Compound 684] | 122 |  |
| Cc1ccc2[nH]ncc2c1-c1nc(-c2ccc(F)cc2Nc2ccnc(C)c2C)nc(C(N)=O)c1N [Compound 584] | 18 |  |
| Cc1ccc2[nH]ncc2c1-c1nc(-c2cccnc2NC[C@@H]2CCCOC2)nc(C(N)=O)c1N [Compound 651] | 130 |  |
| Cc1ccc2[nH]ncc2c1-c1nc(-c2ccc(C#N)nc2Nc2ncccc2F)nc(C(N)=O)c1N [Compound 746] | 11 |  |
| Cc1ccc2[nH]ncc2c1-c1nc(-c2cccnc2Nc2cccnc2)nc(C(N)=O)c1N [Compound 768] |  | IC50 (2 h compound incubation): 122 nM |
| Cc1ccc2[nH]ncc2c1-c1nc(-c2ccc(Cl)nc2Nc2nccnc2Cl)nc(C(N)=O)c1N [Compound 770] | 17 |  |
| Cc1ccc2[nH]ncc2c1-c1nc(-c2cccnc2NCC2COCCO2)nc(C(N)=O)c1N (stereo not shown) [Compound 642] | 472 |  |
| Cc1ccc2[nH]ncc2c1-c1nc(-c2cc(F)c(F)cc2NC(=O)C(C)(C)C)nc(C(N)=O)c1N [Compound 487] | 68 |  |
| Cc1ccc2[nH]ncc2c1-c1nc(-c2cc(F)ccc2NS(=O)(=O)C2CCC2)nc(C(N)=O)c1N [Compound 571] | 283 |  |
| Cc1ccc2[nH]ncc2c1-c1nc(-c2cccnc2N[C@@H]2CCOC[C@@H]2F)nc(C(N)=O)c1N [Compound 643] | 7 |  |
| Cc1ccc2[nH]ncc2c1-c1nc(-c2ncccc2NCC(F)(F)F)nc(C(N)=O)c1N [Compound 538] | 33 |  |
| Cc1ccc(-c2nc(C(N)=O)c(N)c(-c3c(C)ccc4[nH]ncc34)n2)c(Nc2nc(C)cnc2C)n1 [Compound 689] | 6 |  |
| Cc1ccc2[nH]ncc2c1-c1nc(-c2cccnc2N[C@H]2CC[C@H](O)C2)nc(C(N)=O)c1N [Compound 785] | 22 |  |
| Cc1ccc2[nH]ncc2c1-c1nc(-c2cccnc2NCC(F)(F)F)nc(C(N)=O)c1N [Compound 518, 5-amino-6-(5-methyl-1H-indazol-4-yl)-2-(2-((2,2,2-trifluoroethyl)amino)pyridin-3-yl)pyrimidine-4-carboxamide] | 18 |  |
| Cc1ccc2[nH]ncc2c1-c1nc(-c2cc(F)cnc2N[C@H]2CC[C@H](O)C2)nc(C(N)=O)c1N [Compound 812] |  | IC50 (2 h, 2 hours with compound): 26 nM |
